Measured values taken from US20120077836A1, “METHODS OF ADMINISTERING (4AR,10AR)-1-N-PROPYL-1,2,3,4,4A,5,10,10A-OCTAHYDROBENZO [G] QUINOLINE-6,7-DIOL AND RELATED COMPOUNDS ACROSS THE ORAL MUCOSA, THE NASAL MUCOSA OR THE SKIN AND PHARMACEUTICAL COMPOSITIONS THEREOF” (priority 2009, published 2012).
Values joined by “and” are separate entries in the source; they are usually repeats but may differ in a detail not shown here. Equal entries are not always repeated. Structures can show the parent of a compound that is named as a salt. Where two headings read alike, the source gives them in different places.

Experiment: Intravenous and buccal pharmacokinetic study in the minipig
Format: in vivo
Protocol: The test article was compound 10. The vehicles for the test article were Sterile saline (0.9% NaCl) (intravenous administration) supplied by Baxter, Norfolk or Ascorbic acid reconstituted in Water for Injection (buccal administration) supplied by VWR International, Leicestershire. Formulations were prepared on the day of dosing.
Three male minipigs of the Göttingen ApS strain were supplied by Ellegaard Göttingen, Dalmose, Denmark. At initiation of dosing, animals were approximately 15 to 17 weeks old. Each animal was dosed once on three separate occasions according to the following study design:
Animals were deprived of food overnight and anaesthetised with isoflurane in oxygen (administered by facemask), prior to each dosing occasion.
Intravenous administrations were performed by slow manual injection via a temporary catheter placed in the ear vein whilst under anaesthesia, animals were allowed to recover from the anaesthesia immediately after dosing. Whilst anaesthetised, a catheter was inserted into the jugular vein and secured in place for the purpose of blood collection. The catheter was filled with heparin (250 iu/mL in 0.9% sodium chloride). The exterior portion of the catheter was routed from the ventral neck to the dorsum of the minipig and protected by bandaging. The distal end of the catheter was capped and placed in a re-sealable pouch within the bandage. The jugular catheter was retained in place and flushed with heparinised saline every 24 hours.
Buccal administrations were performed by applying the test formulation to the buccal membrane for 5 minutes while the animal was anaesthetised. Any residual formulation remaining in the mouth after the 5 minute application was […]. Animals were allowed to recover from the anaesthesia immediately after dosing.
, all animals on Day 3 following buccal administration of a low dose and all animals on Day 5 following buccal administration of a high dose for pharmacokinetic analysis. The samples (1.0 mL) were collected from the jugular vein (via catheter) into tubes containing EDTA anticoagulant. Prior to addition of the blood sample, 100 microL of a stabiliser (2% beta-mercaptoethanol containing 20 mg/mL ascorbic acid) was added to each pot. The stabiliser was prepared fresh on each day of sample collection. Samples were collected as follows: • Day 1: 5, 10, 15, 30 and 45 minutes and 1, 2, 4, 6, 8, 12 and 16 hours post-dose • Day 3: pre-dose and at 5, 10, 15, 30 and 45 minutes and 1, 2, 4, 6, 8, 12, 16 and 24 hours post-dose • Day 5: pre-dose and at 5, 10, 15, 30 and 45 minutes and 1, 2, 4, 6, 8, 12, 16 and 24 hours post-dose
The times of the blood sampling were generally adhered to. The greatest deviation from the scheduled timepoints was one minute late at the 5 minute timepoint on Day 3. The blood samples were centrifuged within one hour of sample collection and the resultant plasma was frozen prior to analysis.
The plasma concentrations of compound 10 were determined after solid phase extraction of the plasma samples followed by high performance liquid chromatography with tandem mass spectrometric detection (LC-MS/MS) using a sample volume of about 100 microL.
Internal standard solution, containing the internal standard of compound 10 was added to thawed plasma samples (100 microL aliquot). The SPE plate (Oasis HLB, 10 mg) was conditioned with methanol (500 microL) followed by water (500 microL). The sample (approx. 500 microL aliquot) was transferred to the pre-conditioned SPE plate. The sample was then passed through the cartridge, which was then washed with water:methanol (90:10 v/v, 0.5 mL). The sample was then eluted into a fresh 96 well polypropylene collection plate with 20 mM ammonium formate (aq): acetonitrile: formic acid (50:50:2 v/v/v, 250 microL). The organic component of the eluted samples was then evaporated under a gentle stream of nitrogen until approximately 50% of the original volume was remaining. […]

[1] = IV 0.0025 mg/kg, individual animals 1-3, hydrobromide, 0.0025 mg/kg
[2] = buccal 0.010 mg/kg, individual animals 1-3, hydrobromide
[3] = buccal 40 μg/kg versus 10 μg/kg, males
[4] = buccal 0.040 mg/kg, individual animals 1-3, hydrobromide
[5] = buccal, 0.010 to 0.040 mg/kg (4-fold dose increase)

## CCCN1CCC[C@@H]2Cc3c(ccc(O)c3O)C[C@H]21 [compound 10, (4aR,10aR)-1-n-Propyl-1,2,3,4,4a,5,10,10a-octahydro-benzo[g]quinoline-6,7-diol hydrobromide]
[1]
  Plasma concentration Day 1 Hour 0.08: 1.72 ng/mL and 1.92 ng/mL
  Plasma concentration Day 1 Hour 0.17: 0.976 ng/mL and 1.26 ng/mL
  Plasma concentration Day 1 Hour 0.25: 1.17 ng/mL and 0.828 ng/mL
  Plasma concentration Day 1 Hour 0.5: 0.922 ng/mL and 0.536 ng/mL
  Plasma concentration Day 1 Hour 0.75: 0.656 ng/mL and 0.667 ng/mL
  Plasma concentration Day 1 Hour 1: 0.432 ng/mL and 0.451 ng/mL
  Plasma concentration Day 1 Hour 2: 0.196 ng/mL and 0.352 ng/mL
  Plasma concentration Day 1 Hour 4: 0.0763 ng/mL and 0.115 ng/mL
  Plasma concentration Day 1 Hour 6: 0.0562 ng/mL and 0.0756 ng/mL
  Plasma concentration Day 1 Hour 8: 0.0339 ng/mL and 0.0407 ng/mL
  Plasma concentration Day 1 Hour 12: 0.0299 ng/mL and 0.0209 ng/mL
IV 0.0025 mg/kg, individual animals 1-3, values below LLOQ 10 pg/mL estimated, hydrobromide, 0.0025 mg/kg
  Plasma concentration Day 1 Hour 16: 0.00925 ng/mL and 0.0101 ng/mL
IV bolus 0.0025 mg/kg, first sampling time
  time of maximum plasma concentration: 5 min
Buccal 0.010 mg/kg and 0.040 mg/kg
  time of maximum plasma concentration: about 0.75 hours
[2]
  Plasma concentration Day 1 Hour 4: 0.0983 ng/mL and 0.0917 ng/mL and 0.206 ng/mL
  Plasma concentration Day 1 Hour 6: 0.0845 ng/mL and 0.0265 ng/mL and 0.0758 ng/mL
  Plasma concentration Day 1 Hour 8: 0.0467 ng/mL and 0.0261 ng/mL and 0.0554 ng/mL
  Plasma concentration Day 1 Hour 12: 0.0268 ng/mL and 0.0234 ng/mL and 0.157 ng/mL
  Plasma concentration Day 3 Hour 0.08: 0.0161 ng/mL and 0.379 ng/mL and 0.0552 ng/mL
  Plasma concentration Day 3 Hour 0.17: 0.117 ng/mL and 0.105 ng/mL and 0.221 ng/mL
  Plasma concentration Day 3 Hour 0.25: 0.134 ng/mL and 0.185 ng/mL and 0.622 ng/mL
  Plasma concentration Day 3 Hour 0.5: 0.758 ng/mL and 0.556 ng/mL
  Plasma concentration Day 3 Hour 0.75: 1.1 ng/mL and 0.964 ng/mL
  Plasma concentration Day 3 Hour 1: 0.791 ng/mL and 0.817 ng/mL
  Plasma concentration Day 3 Hour 2: 0.501 ng/mL and 0.372 ng/mL
Buccal 0.010 mg/kg, individual animals 1-3, values below LLOQ 10 pg/mL estimated, hydrobromide
  Plasma concentration Day 1 Hour 24: <0.002 ng/mL and 0.00494 ng/mL and 0.0261 ng/mL
[3]
  Increase in AUC0-∞ (first line): 12.1 fold
  Increase in AUC0-∞ (second line): 18.9 fold
  increase in Cmax: 11.9 fold
[4]
  Plasma concentration Day 1 Hour 4: 2.56 ng/mL and 0.746 ng/mL and 2.49 ng/mL
  Plasma concentration Day 1 Hour 6: 0.781 ng/mL and 0.278 ng/mL and 1.73 ng/mL
  Plasma concentration Day 1 Hour 8: 0.445 ng/mL and 0.212 ng/mL and 0.91 ng/mL
  Plasma concentration Day 1 Hour 12: 0.272 ng/mL and 0.139 ng/mL and 1.4 ng/mL
  Plasma concentration Day 1 Hour 16: 0.142 ng/mL and 0.0584 ng/mL and 0.677 ng/mL
  Plasma concentration Day 1 Hour 24: 0.0443 ng/mL and 0.0789 ng/mL and 0.233 ng/mL
  Plasma concentration Day 5 Hour 0.08: 2.75 ng/mL and 0.695 ng/mL and 0.427 ng/mL
  Plasma concentration Day 5 Hour 0.17: 6.06 ng/mL and 1.93 ng/mL and 1.82 ng/mL
  Plasma concentration Day 5 Hour 0.25: 9.14 ng/mL and 3.33 ng/mL and 3.89 ng/mL
  Plasma concentration Day 5 Hour 0.5: 8.23 ng/mL and 5.31 ng/mL
  Plasma concentration Day 5 Hour 0.75: 10.7 ng/mL and 10.5 ng/mL
  Plasma concentration Day 5 Hour 1: 10.8 ng/mL and 9.58 ng/mL
  Plasma concentration Day 5 Hour 2: 8.68 ng/mL and 6.34 ng/mL and 3.88 ng/mL
[5]
  increase in AUC0-∞: 12 fold
  increase in Cmax: 12 fold
male, Göttingen, in vivo, 0.01 mg/kg, buccal 0.010 mg/kg, individual animals 1-3, read-out: Plasma concentration Day 3 Hour 0.5
  concentration at 0.5 h: 0.943 ng/mL
male, Göttingen, in vivo, 0.01 mg/kg, buccal 0.010 mg/kg, individual animals 1-3, read-out: Plasma concentration Day 3 Hour 0.75
  concentration at 0.75 h: 1.07 ng/mL
male, Göttingen, in vivo, 0.01 mg/kg, buccal 0.010 mg/kg, individual animals 1-3, read-out: Plasma concentration Day 3 Hour 1
  concentration at 1 h: 1 ng/mL
male, Göttingen, in vivo, 0.01 mg/kg, buccal 0.010 mg/kg, individual animals 1-3, read-out: Plasma concentration Day 3 Hour 2
  concentration at 2 h: 0.589 ng/mL
male, Göttingen, in vivo, 0.01 mg/kg, buccal 0.010 mg/kg, individual animals, below LLOQ 10 pg/mL, estimated, read-out: Plasma concentration Day 1 Hour 16
  concentration at 16 h: 0.00691 ng/mL
male, Göttingen, in vivo, 0.01 mg/kg, buccal 0.010 mg/kg, mean (one animal only), read-out: Plasma concentration Day 1 Hour 16, Mean
  concentration at 16 h: 0.00691 ng/mL
male, Göttingen, in vivo, 0.01 mg/kg, buccal 0.010 mg/kg, mean, read-out: Plasma concentration Day 1 Hour 4, Mean
  concentration at 4 h: 0.132 ng/mL
male, Göttingen, in vivo, 0.01 mg/kg, buccal 0.010 mg/kg, mean, read-out: Plasma concentration Day 1 Hour 6, Mean
  concentration at 6 h: 0.0623 ng/mL
male, Göttingen, in vivo, 0.01 mg/kg, buccal 0.010 mg/kg, mean, read-out: Plasma concentration Day 1 Hour 8, Mean
  concentration at 8 h: 0.0427 ng/mL
male, Göttingen, in vivo, 0.01 mg/kg, buccal 0.010 mg/kg, mean, read-out: Plasma concentration Day 1 Hour 12, Mean
  concentration at 12 h: 0.0691 ng/mL
male, Göttingen, in vivo, 0.01 mg/kg, buccal 0.010 mg/kg, mean, read-out: Plasma concentration Day 1 Hour 24, Mean
  concentration at 24 h: 0.0155 ng/mL
male, Göttingen, in vivo, 0.01 mg/kg, buccal 0.010 mg/kg, mean, read-out: Plasma concentration Day 3 Hour 0.08, Mean
  concentration at 0.08 h: 0.15 ng/mL
